26 compounds from US20230312528A1, “2-OXO-IMIDAZOLIDINE-4-CARBOXAMIDES AS NAV1.8 INHIBITORS” (Merck Sharp & Dohme LLC, priority 2020, published 2023) can be followed below.

Where “and” joins values, the source holds several entries; their conditions need not be identical. Identical values can stand only once.

The target in the assay is human NaV1.8 (Homo sapiens (Human), UniProt Q9Y5Y9). Put plainly: Nav1.8 Qube automated patch-clamp assay. It is filed as cell-based. The conditions noted are these: human NaV1.8 stably expressed in HEK 293 cells; automated 384-well patch-clamp; resting or inactivated state not specified. In a few lines: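 Human NaV1.8 in HEK293 cells, automated whole-cell patch clamp at room temperature: 1 Hz train of ten 20 ms pulses to 10 mV from −90 mV, repolarization to −67 mV. First- and tenth-pulse peak currents gave resting and inactivated-state IC50 values via Hill fits.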
human NaV1.8, sequence (Q9Y5Y9 whole entry): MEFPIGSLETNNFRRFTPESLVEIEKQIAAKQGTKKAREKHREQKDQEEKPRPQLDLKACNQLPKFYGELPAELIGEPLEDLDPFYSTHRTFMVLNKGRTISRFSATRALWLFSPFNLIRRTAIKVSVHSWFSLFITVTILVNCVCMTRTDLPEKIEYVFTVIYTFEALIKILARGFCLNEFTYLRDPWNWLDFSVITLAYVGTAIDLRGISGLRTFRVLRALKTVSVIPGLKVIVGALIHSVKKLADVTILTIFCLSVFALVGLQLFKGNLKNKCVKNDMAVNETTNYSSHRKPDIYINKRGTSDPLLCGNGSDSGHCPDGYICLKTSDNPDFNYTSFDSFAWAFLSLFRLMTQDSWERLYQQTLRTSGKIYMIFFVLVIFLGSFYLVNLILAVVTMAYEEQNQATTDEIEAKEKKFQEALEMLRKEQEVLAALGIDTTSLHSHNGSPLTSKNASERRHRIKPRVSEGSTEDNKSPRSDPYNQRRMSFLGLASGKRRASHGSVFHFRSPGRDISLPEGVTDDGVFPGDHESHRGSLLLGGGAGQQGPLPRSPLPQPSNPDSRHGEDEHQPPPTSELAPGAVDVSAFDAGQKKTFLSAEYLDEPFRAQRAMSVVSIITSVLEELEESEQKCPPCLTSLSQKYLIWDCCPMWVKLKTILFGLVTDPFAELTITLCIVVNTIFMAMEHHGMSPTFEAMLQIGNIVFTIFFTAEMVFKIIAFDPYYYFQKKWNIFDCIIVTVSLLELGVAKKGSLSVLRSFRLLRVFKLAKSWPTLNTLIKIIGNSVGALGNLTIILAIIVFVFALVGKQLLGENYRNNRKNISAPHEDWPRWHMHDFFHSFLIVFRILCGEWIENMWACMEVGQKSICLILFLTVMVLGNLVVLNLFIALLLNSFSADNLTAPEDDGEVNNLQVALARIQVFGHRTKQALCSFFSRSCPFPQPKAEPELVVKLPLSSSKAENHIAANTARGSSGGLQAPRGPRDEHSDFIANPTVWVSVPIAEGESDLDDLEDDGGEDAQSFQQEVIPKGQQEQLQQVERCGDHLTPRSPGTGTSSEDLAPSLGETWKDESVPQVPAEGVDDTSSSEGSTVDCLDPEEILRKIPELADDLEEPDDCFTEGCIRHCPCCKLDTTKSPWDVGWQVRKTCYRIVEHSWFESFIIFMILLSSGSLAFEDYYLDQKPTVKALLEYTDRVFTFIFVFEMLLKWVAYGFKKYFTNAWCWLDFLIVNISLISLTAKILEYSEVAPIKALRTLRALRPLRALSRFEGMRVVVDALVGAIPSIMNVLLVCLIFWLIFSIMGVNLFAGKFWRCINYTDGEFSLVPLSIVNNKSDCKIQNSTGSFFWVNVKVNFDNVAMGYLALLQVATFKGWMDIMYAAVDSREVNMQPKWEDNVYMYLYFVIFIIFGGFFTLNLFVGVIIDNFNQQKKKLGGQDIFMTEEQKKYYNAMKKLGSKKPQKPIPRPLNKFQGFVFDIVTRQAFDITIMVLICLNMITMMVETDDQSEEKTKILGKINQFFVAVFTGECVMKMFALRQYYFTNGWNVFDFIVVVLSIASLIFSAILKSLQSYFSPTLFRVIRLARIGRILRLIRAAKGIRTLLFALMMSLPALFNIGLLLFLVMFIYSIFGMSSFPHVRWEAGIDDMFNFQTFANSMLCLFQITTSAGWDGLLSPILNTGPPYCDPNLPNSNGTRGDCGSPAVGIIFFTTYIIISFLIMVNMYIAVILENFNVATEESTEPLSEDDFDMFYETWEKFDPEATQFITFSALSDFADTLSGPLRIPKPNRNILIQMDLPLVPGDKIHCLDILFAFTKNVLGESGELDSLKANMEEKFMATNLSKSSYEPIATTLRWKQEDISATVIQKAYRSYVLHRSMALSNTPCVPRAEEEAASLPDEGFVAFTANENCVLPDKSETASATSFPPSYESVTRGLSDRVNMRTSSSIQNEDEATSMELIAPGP
On the technique in general: In patch-clamp work, channel activity is measured electrically.
For the compound `CN1CCC(C(NC(=O)[C@@H]2CNC(=O)N2)c2ccc(F)c(Cl)c2F)CC1C(F)(F)F` (single isomer, unassigned) [Example 78D, (S)-N-((R or S)-(3-chloro-2,4-difluoro-phenyl)((cis or trans)-1-methyl-2-(trifluoro-methyl)piperidin-4-yl)methyl)-2-oxoimidazolidine-4-carboxamide], the midpoint of inhibition, the IC50, lay at 4660 nM.
In the case of `O=C1NC[C@@H](C(=O)NC(c2cnc(OCC(F)(F)F)c(F)c2)c2ccc(F)c(C(F)(F)F)n2)N1` (single isomer, unassigned) [Example 46B, (S)-N-((R or S)-(5-fluoro-6-(2,2,2-trifluoroethoxy)pyridin-3-yl)(5-fluoro-6-(trifluoromethyl)pyridin-2-yl)methyl)-2-oxoimidazolidine-4-carboxamide], the IC50 is 27 nM and 6 nM.
Then `O=C1NC[C@@H](C(=O)NC(c2ccc(F)c(Cl)c2)C2Cc3ccc(F)cc32)N1` (stereo partly drawn) [Example 69, (4S)-N-((3-chloro-4-fluorophenyl)(4-fluorobicyclo[4.2.0]octa-1(6),2,4-trien-7-yl)methyl)-2-oxoimidazolidine-4-carboxamide], with 141 nM.
The value for `O=C1NC[C@@H](C(=O)NC(c2cnc(OC(F)F)nc2)c2ccc(F)c(Cl)c2F)N1` (single isomer, unassigned) [Example 64A, (S)-N-((R or S)-(3-chloro-2,4-difluorophenyl)(2-(difluoromethoxy)pyrimidin-5-yl)methyl)-2-oxoimidazolidine-4-carboxamide] was 79 nM; that for `O=C1NC[C@@H](C(=O)NC(c2ccc(F)c(Cl)c2)c2ccc(Cl)c(C(F)(F)F)n2)N1` (single isomer, unassigned) [Example 62B, (S)-N-((R or S)-(3-chloro-4-fluorophenyl)(5-chloro-6-(trifluoromethyl)pyridin-2-yl)methyl)-2-oxoimidazolidine-4-carboxamide] was 0.4 nM; that for `O=C1NC[C@@H](C(=O)NC(c2ccc(F)c(Cl)c2F)C2COC(C(F)(F)F)C2)N1` (single isomer, unassigned) [Example 79B, (S)-N-((R or S)-(3-chloro-2,4-difluoro-phenyl)((cis or trans)-5-(trifluoromethyl)tetrahydrofuran-3-yl)methyl)-2-oxoimidazolidine-4-carboxamide] was 190 nM.
On to `O=C1NC[C@@H](C(=O)NC(c2ccc(F)c(Cl)c2F)C2COC(C(F)(F)F)C2)N1` (single isomer, unassigned) [Example 79F, (S)-N-((R or S)-(3-chloro-2,4-difluoro-phenyl)((cis or trans)-5-(trifluoromethyl)tetrahydrofuran-3-yl)methyl)-2-oxoimidazolidine-4-carboxamide], for which it took 520 nM to reach half-maximal inhibition (IC50). Against the preceding compound, the IC50 is about 2.7-fold higher.
Then `CN1CCC(C(NC(=O)[C@@H]2CNC(=O)N2)c2ccc(F)c(Cl)c2F)CC1C(F)(F)F` (single isomer, unassigned) [Example 78B, (S)-N-((R or S)-(3-chloro-2,4-difluoro-phenyl)((cis or trans)-1-methyl-2-(trifluoro-methyl)piperidin-4-yl)methyl)-2-oxoimidazolidine-4-carboxamide], with 9500 nM; and `CC(N1CC(C)(C(NC(=O)[C@@H]2CNC(=O)N2)c2ccc(F)c(Cl)c2F)C1)C(F)(F)F` (single isomer, unassigned) [Example 65D, (S)—N—((R or S)-(3-chloro-2,4-difluorophenyl)(3-methyl-1-((R or S)-1,1,1-trifluoropropan-2-yl)azetidin-3-yl)methyl)-2-oxoimidazolidine-4-carboxamide], with 7760 nM.
The value for `CC1(C)CC(C(NC(=O)[C@@H]2CNC(=O)N2)c2ccc(Cl)cc2)CCN1CC(F)(F)F` (single isomer, unassigned) [Example 91A, (4S)—N—((R or S)(4-chlorophenyl)((R or S)2,2-dimethyl-1-(2,2,2-trifluoroethyl)piperidin-4-yl)methyl)-2-oxoimidazolidine-4-carboxamide] was 289 nM; that for `O=C1NC[C@@H](C(=O)NC(c2cnc(C(F)(F)F)c(Cl)c2)c2ccc(Cl)c(C(F)F)n2)N1` (single isomer, unassigned) [Example 3B, (S)—N—((R or S)-(5-chloro-6-(difluoromethyl)pyridin-2-yl)(5-chloro-6-(trifluoromethyl)pyridin-3-yl)methyl)-2-oxoimidazolidine-4-carboxamide] was 2.7 nM; that for `Cc1nc(C(F)(F)F)sc1C(NC(=O)[C@@H]1CNC(=O)N1)c1ccc(Cl)cc1` (stereo partly drawn) [Example 76, (4S)-N-((4-chlorophenyl)(4-methyl-2-(trifluoro-methyl)thiazol-5-yl)methyl)-2-oxoimidazolidine-4-carboxamide] was 35 nM.
Then `N#Cc1cc(C(NC(=O)[C@@H]2CNC(=O)N2)c2ccc(OC(F)(F)F)cc2)ccc1Cl` (single isomer, unassigned) [Example 57B, (S)-N-((R or S)-(4-chloro-3-cyanophenyl)(4-(trifluoromethoxy)phenyl)methyl)-2-oxoimidazolidine-4-carboxamide], with 2.4 nM; and `O=C1NC[C@@H](C(=O)NC(c2ccc(F)c(Cl)c2)c2ccn(CC(F)(F)F)n2)N1` (single isomer, unassigned) [Example 28B, (4S)-N-{(R or S)-(3-chloro-4-fluorophenyl)[1-(2,2,2-trifluoroethyl)-1H-pyrazol-3-yl]methyl}-2-oxoimidazolidine-4-carboxamide], with 436 nM; and `O=C1NC[C@@H](C(=O)NC(c2ccc(Cl)cc2)c2ccn3nccc3c2)N1` (single isomer, unassigned) [Example 80A, (S)—N—((R or S)-(4-chlorophenyl)(pyrazolo[1,5-a]pyridin-5-yl)methyl)-2-oxoimidazolidine-4-carboxamide], with 100 nM.
The compound `O=C1NC[C@@H](C(=O)NC(c2ccc(OCC(F)(F)F)nn2)c2ccc(F)c(Cl)c2F)N1` (single isomer, unassigned) [Example 50B, (4S)—N—((R or S)-(3-chloro-2,4-difluorophenyl)(6-(2,2,2-trifluoroethoxy)pyridazin-3-yl)methyl)-2-oxoimidazolidine-4-carboxamide] came in with a half-maximal inhibitory concentration (IC50) of 206 nM.
Then `O=C1NC[C@@H](C(=O)NC(c2ccc(F)c(Cl)c2F)C2CCN(C3(C(F)(F)F)CC3)CC2)N1` (single isomer, unassigned) [Example 5A, (S)—N—((R or S)-(3-chloro-2,4-difluorophenyl)(1-(1-(trifluoromethyl)-cyclopropyl)piperidin-4-yl)methyl)-2-oxoimidazolidine-4-carboxamide], with 1.6 nM; and `O=C1NC[C@@H](C(=O)NC(c2ccc(F)c(Cl)c2F)C2CCCCN2CC(F)(F)F)N1` (single isomer, unassigned) [Example 58A, (S)-N-((R or S)-(3-chloro-2,4-difluorophenyl) ((R or S)-1-(2,2,2-trifluoroethyl)piperidin-2-yl)methyl)-2-oxoimidazolidine-4-carboxamide], with 2010 nM; and `N#Cc1ccc(C(NC(=O)[C@@H]2CNC(=O)N2)c2ccc(F)c(Cl)c2)cc1` (single isomer, unassigned) [Example 18A, (S)-N-((R or S)-(3-chloro-4-fluoro-phenyl)(4-cyano-phenyl)methyl)-2-oxoimidazolidine-4-carboxamide], with 18 nM.
Then `O=C1NC[C@@H](C(=O)NC(c2ccc(OC(F)(F)F)c(Cl)c2)c2coc(C(F)(F)F)n2)N1` (single isomer, unassigned) [Example 47B, (S)-N-((R or S)-(3-chloro-4-(trifluoro-methoxy)phenyl)(2-(trifluoromethyl)oxazo 1-4-yl)methyl)-2-oxoimidazolidine-4-carboxamide], with 3.9 nM; and `O=C1NC[C@@H](C(=O)NC(c2ccc(F)c(Cl)c2F)C2COC(C(F)(F)F)C2)N1` (single isomer, unassigned) [Example 79G, (S)-N-((R or S)-(3-chloro-2,4-difluoro-phenyl)((cis or trans)-5-(trifluoromethyl)tetrahydrofuran-3-yl)methyl)-2-oxoimidazolidine-4-carboxamide], with 2330 nM.
The value for `O=C1NC[C@@H](C(=O)NC(c2ccc(OC(F)(F)F)c(Cl)c2)c2ccnc(C(F)(F)F)n2)N1` (single isomer, unassigned) [Example 49A, (S)-N-((R or S)-3-chloro-4-(trifluoro-methoxy)phenyl)(2-(trifluoromethyl)pyrimidin-4-yl)methyl)-2-oxoimidazolidine-4-carboxamide] was 7.6 nM; that for `C[C@@H]1C[C@H](C(NC(=O)[C@@H]2CNC(=O)N2)c2ccc(F)c(Cl)c2)C[C@H](C)N1CC(F)(F)F` (single isomer, unassigned) [Example 15A, (S)-N-((R or S)-(3-chloro-4-fluoro-phenyl)(cis-2,6-dimethyl-1-(2,2,2-trifluoroethyl)piperidin-4-yl)methyl)-2-oxoimidazolidine-4-carboxamide] was 31 nM; that for `O=C1NC[C@@H](C(=O)NC(c2ccc(OC(F)(F)F)c(Cl)c2)c2cnn(C(F)(F)F)c2)N1` (single isomer, unassigned) [Example 41A, (S)—N—((R or S)-(3-chloro-4-(trifluoromethoxy)phenyl)(1-(trifluoromethyl)-1H-pyrazol-4-yl)-l3-methyl)-2-oxoimidazolidine-4-carboxamide] was 1.7 nM.
`O=C1NC[C@@H](C(=O)NC(c2ccc(OC(F)(F)F)c(Cl)c2)c2coc(C(F)(F)F)n2)N1` (single isomer, unassigned) [Example 47A, (S)-N-((R or S)-(3-chloro-4-(trifluoro-methoxy)phenyl)(2-(trifluoromethyl)oxazo 1-4-yl)methyl)-2-oxoimidazolidine-4-carboxamide] displayed a concentration for half-maximal inhibition (IC50) of 5.2 nM.
`O=C1NC[C@@H](C(=O)NC(c2ccc(F)c(Cl)c2)c2nc3ccccc3s2)N1` (single isomer, unassigned) [Example 87, (S)-N-((R or S)-benzo[d]thiazol-2-yl(3-chloro-4-fluoro-phenyl)methyl)-2-oxoimidazolidine-4-carboxamide] showed a half-inhibitory concentration (IC50) of 2.9 nM.

In general, IC50 refers to the point on the concentration scale where inhibition reaches its midpoint. Higher therefore signals weaker potency in that assay.
